Here are results for 3 compounds from US20050048105A1, “Protease inhibitor compositions for prevention and treatment of skin conditions” (priority 2003, published 2005).

Structures are written as SMILES. Read-outs that look alike come from different tables or passages of the source.

The test system of data set [1] is protease. The data set can be described thus: Protease inhibition activity of inhibitor solutions and lotions, fresh and after storage. Format: biochemical. To be noted: for initial protease inhibition activity: freshly prepared preparation; for decrease of inhibitory activity after storage of solution: one month at room temperature, vs fresh solution. The protocol:
(§1) The inventor selected glycine soja and DPHP by testing numerous potential inhibitors in vitro to assess their activity against protease enzymes. A protease enzyme present in feces or urine, such as trypsin, chymotrypsin, or elastase, was placed in contact with a substrate (crosslinked albumin, sulfaniloazo-albumin and gelatin). Separately, the protease (trypsin, chymotrypsin or elastase) was incubated with a protease inhibitor and then this combination was placed in contact with the substrate. The substrate-protease or substrate-protease-protease inhibitor combination was then left to incubate.
(§2) At a defined time, the incubation was stopped by the addition of NaOH. Color was developed and read at OD 450. The intensity of the color developed was directly proportional to the amount of substrate digested by the protease.
Using the above methods, two protease inhibitors mentioned by the prior art were tested. […] However, they were left for one month and then tested for activity. After one month at room temperature, the activity of the stabilized AEBSF solution was decreased by 42%.

The conditions of data set [2]: shown by the manufacturer; cited from earlier work.
The target in data set [3] is T1, trypsin (Bos taurus, UniProt P00760).
T1 construct: gene PRSS1
T1 sequence (P00760 24-246): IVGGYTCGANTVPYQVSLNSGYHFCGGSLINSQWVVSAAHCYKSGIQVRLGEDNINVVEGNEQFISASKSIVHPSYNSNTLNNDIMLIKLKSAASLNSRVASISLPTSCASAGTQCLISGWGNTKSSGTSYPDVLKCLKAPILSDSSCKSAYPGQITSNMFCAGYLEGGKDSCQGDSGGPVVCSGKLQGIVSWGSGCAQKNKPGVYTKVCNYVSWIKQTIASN
The data set can be described thus: Back digest of albumin/gelatin dye substrate by trypsin (FIGS. 2 and 4). Format: biochemical. On the procedure: as §1, §2
A back digest was performed with a spectrally active protease substrate, trypsin, and either DPHP or glycine soja. Trypsin was incubated with either DPHP or glycine soja, and for the control, neither DPHP nor glycine soja was used. The trypsin or trypsin+either DPHP or glycine soja was then placed in contact with a substrate, the results of which are shown in FIGS. 3 and 4.
(§3) The substrate used was a crosslinked albumin, sulfaniloazo-albumin and gelatin at a slightly acidic pH. […] This color development can be measured spectrophotometrically at OD 450 and the OD value is proportional to enzymatic activity. […] The OD 450 reading is directly proportional to the enzyme activity (i.e. the higher the value, the higher the enzyme activity).
(§4) A back digest was conducted when particulate suspensions were used as either enzyme or enzyme inhibitor or when lotions were being tested, because the particulate interferes with the OD readings. […] Color development was read at OD 450. […]
After an initial digest, the supernatant was decanted, and an excess of trypsin was added for further digestion of the substrate. After this final digest, supernatant optical density (OD) was read at 450 nm. […]

Data set [4] relates to elastase. To be noted: studies by the manufacturer (Seppic); cited from earlier work.
Data set [5] concerns the target chymotrypsin (Bos taurus, UniProt P00766). Nature of the data set: In vitro protease substrate digest with chymotrypsin. Format: biochemical. The protocol: as §1, §2
Data set [6] deals with elastase. Nature of the data set: Back digest of albumin/gelatin dye substrate by elastase (FIG. 4). In kind it is biochemical. On the procedure: as §1
At a defined time, the incubation was stopped by the addition of NaOH. Color was developed and read at OD 450. […]
as §3, §4

Where [7] appears, read: DPHP material itself, back digest, FIG. 4.
[8] abbreviates: listed as dipalmitoyl hydroxyproline.

For the compound `Cl.NCCc1ccc(S(=O)(=O)F)cc1` [AEBSF, 4-(2-aminoethyl)-benzenesulfonylfluoride hydrochloride], in data set [1], the “initial protease inhibition activity” value is listed as “very high protease inhibition activity” and the “decrease of inhibitory activity after storage of solution” value was 42%.
As for `CCCCCCCCCCCCCCCC(=O)O[C@@H]1C[C@@H](C(=O)O)N(C(=O)CCCCCCCCCCCCCCC)C1` [DPHP, dipalmitoyl hydroxyproline], in data set [2], the “inhibition of free radicals (manufacturer)” value is given as “potent inhibitor of free radicals”. The “inhibition of trypsin (in words)” value in data set [3] is on record as “does inhibit”; in data set [3] (setting [8]), “potent inhibitors”. Moreover, the “change in trypsin activity” value in data set [3] (setting [7]) is recorded as −33%. Besides, in data set [4], the “inhibition of elastase (manufacturer)” value was “potent inhibitor of elastase”. In addition, the “inhibition of chymotrypsin (in words)” value in data set [5] is “does inhibit”; in data set [5] (setting [8]), “potent inhibitors”. Also, the “inhibition of elastase (in words)” value in data set [6] is listed as “does inhibit”. In addition, the “change in elastase activity” value in data set [6] (setting [7]) was −22%.
For the compound `N=C(N)c1ccc(OCCCCCCOc2ccc(C(=N)N)cc2)cc1.O=S(=O)(O)CCO.O=S(=O)(O)CCO` [Elestab, hexamidine diisethionate], in data set [1], the “initial protease inhibition activity” value was “very high protease inhibition activity” and the “decrease of inhibitory activity after storage of solution” value was “about 37%”.
